Data on three compounds can be found in patent US20260055080A1, “NOVEL SUBSTITUTED QUINOLINE AND TETRAHYDRONAPHTHALENE CARBOXYLIC ACID DERIVATIVES AND THERAPEUTIC USES THEREOF” (SANOFI, priority 2022, published 2026).

The target of this assay is T1, ERα (Homo sapiens, UniProt P03372).
T1 construct: measured to determine the levels of ERα and DNA respectively; host or cells: MCF7
T1 sequence (P03372 1-595): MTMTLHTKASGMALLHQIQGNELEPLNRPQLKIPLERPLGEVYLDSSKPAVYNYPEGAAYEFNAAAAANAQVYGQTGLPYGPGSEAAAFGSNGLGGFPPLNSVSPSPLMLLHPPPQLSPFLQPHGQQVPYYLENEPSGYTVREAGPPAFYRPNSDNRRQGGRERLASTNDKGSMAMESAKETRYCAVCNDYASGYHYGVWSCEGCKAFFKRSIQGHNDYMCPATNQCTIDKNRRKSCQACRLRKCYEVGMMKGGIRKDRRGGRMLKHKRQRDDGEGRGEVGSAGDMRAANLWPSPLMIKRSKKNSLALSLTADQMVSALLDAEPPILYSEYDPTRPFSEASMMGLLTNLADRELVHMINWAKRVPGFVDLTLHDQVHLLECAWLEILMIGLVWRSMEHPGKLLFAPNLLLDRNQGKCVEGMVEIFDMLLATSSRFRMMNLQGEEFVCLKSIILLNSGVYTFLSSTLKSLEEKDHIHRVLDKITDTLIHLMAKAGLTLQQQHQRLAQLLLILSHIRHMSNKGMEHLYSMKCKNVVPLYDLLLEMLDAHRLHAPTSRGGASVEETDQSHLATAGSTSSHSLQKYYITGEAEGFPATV
Description: Estrogen receptor degradation activity: breast cancer cell ERα in cell western assay. Conditions: MCF7 cells; for % Degradation At 0.3 μM: 4 hours, relative to fulvestrant 0.1 μM positive control; for DC50: 4 hours post compound addition, concentration which degrades 50% of the estrogen receptor, read-out: Degradation IC50. Type of assay: cell-based. Here is the method: Test: Estrogen Receptor Degradation Activity
Said test involves measuring the in vitro degradation activity of the compounds of the Table 1.
The measurements of the degradation activities were made using a breast cancer cell ERα in cell western assay as described hereunder.
MCF7 cells (ATCC) were seeded in 384 wells microplate (collagen coated) at a concentration of 10000 cells/30 μL per well in red phenol free MEM alpha medium (invitrogen) containing 5% charcoal dextran striped FBS. The following day, 9 points serial 1:5 dilution of each compound was added to the cells in 2.5 μL at final concentrations ranging from 0.3-0.0000018 μM (in Table 2), or 0.1 μM for fulvestrant (using as positive control). At 4 hours post compound addition the cells were fixed by adding 25 μL of formalin (final concentration 5% formalin containing 0.1% triton) for 10 minutes at room temperature and then washed twice with PBS. Then, 50 μL of LI-COR blocking buffer containing 0.1% Triton was added to plate for 30 minutes at room temperature. LI-COR blocking buffer was removed and cells were incubated overnight at cold room with 50 μL anti-ER rabbit monoclonal antibody (Thermo scientific MA1-39540) diluted at 1:1000 in LI-COR blocking buffer containing 0.1% tween-20. Wells which were treated with blocking buffer but no antibody were used as background control. Wells were washed twice with PBS (0.1% tween-20) and incubated at 37° C. for 60 minutes in LI-COR (0.1% tween-20) containing goat anti-rabbit antibody Alexa 488 (1:1000) and Syto-64 a DNA dye (2 μM final concentration). Cells were then washed 3 times in PBS and scanned in ACUMEN explorer (TTP-Labtech). Integrated intensities in the green fluorescence and red fluorescence were measured to determine the levels of ERα and DNA respectively.
The degradation activity with respect to estrogen receptors in this test is given by the concentration which degrades 50% of the estrogen receptor (or IC50) in nM.
The % of ERα levels decrease were determined as follows: % inhibition=100*(1-(sample-fulvestrant: DMSO-fulvestrant)).

Each structure is given as a SMILES string.

With `O=C(O)c1ccc2c(C(=O)c3ccc(OC4CN(CCCF)C4)cc3)c(-c3ccc(C(F)(F)F)cc3F)cnc2c1` [Compound 1], the “% Degradation At 0.3 μM” value was 51% and the DC50 turned out to be 136 nM.
With `O=C(O)c1ccc2c(C(=O)c3ccc(OCCN4CC(CF)C4)cc3)c(-c3ccc(C(F)(F)F)cc3F)cnc2c1` [Compound 2, 3-(2-fluoro-4-(trifluoromethyl)phenyl)-4-(4-(2-(3-(fluoromethyl)azetidin-1-yl)ethoxy)benzoyl)quinoline-7-carboxylic acid], the “% Degradation At 0.3 μM” value turned out to be 62% and the DC50 came to 196 nM.
Regarding `CCNCCc1ccc(CN(CC)c2cc(OC)ccc2[C@@H]2CCc3cc(C(=O)O)ccc3C2)cc1` [Compound 3, (R)-6-(2-(ethyl(4-(2-(ethylamino)ethyl)benzyl)amino)-4-methoxyphenyl)-5,6,7,8-tetrahydronaphthalene-2-carboxylic acid], the “% Degradation At 0.3 μM” value amounted to 49% and the DC50 worked out at 252 nM.
